Values of other authors as cited in PubChem BioAssay AID1259409 (Chemical Carcinogenesis Research Information System (CCRIS), 2018).

System: rodent chemically induced tumor inhibition, incidence and multiplicity
Experiment: CCRIS tumor inhibitor studies

C=CC1=C(C)C2=CC3=NC(=C(CC(=O)O)C4=NC(=C(C)C4=C(O)O)C=c4[nH]c(c(C)c4CC)=CC1=N2)C(CCC(=O)O)C3C (stereo not given)
outcome (Carcinogen: 2-AMINO-3-METHYLIMIDAZO[4,5-F]QUINOLINE [76180-96-6], Dose [Inhibitor]: 0, 0.01% (W/V BASED ON TOTAL CHLORINS) IN DRINKING WATER BEGINNING 1 WK POST CARCINOGEN TREATMENT FOR THE DURATION STUDY, Route [Inhibitor]: ORAL, Species: RAT, Strain/Sex: F344/MALE, Target Tissue: Type of Lesion: SMALL INTESTINE: TUMOR, Dose [Carcinogen]: 0.03% IN DIET FOR FIRST 5 WK (STUDY DURATION: 52 WK), Promoter: NONE): 0/22 (0%), 2/20 (10%), -%, not significant
tumour outcome (control, treated, inhibition, significance) (Carcinogen: 2-AMINO-3-METHYLIMIDAZO[4,5-F]QUINOLINE [76180-96-6], Dose [Inhibitor]: 0, 0.01% (W/V BASED ON TOTAL CHLORINS) IN DRINKING WATER BEGINNING 1 WK POST CARCINOGEN TREATMENT FOR THE DURATION STUDY, Route [Inhibitor]: ORAL, Species: RAT, Strain/Sex: F344/MALE, Target Tissue: Type of Lesion: ZYMBAL'S GLAND: TUMOR, Dose [Carcinogen]: 0.03% IN DIET FOR FIRST 5 WK (STUDY DURATION: 52 WK), Promoter: NONE): 5/22 (23%), 5/20 (25%), -9%, not significant
tumour outcome (control, treated, inhibition, significance) (Carcinogen: 2-AMINO-3-METHYLIMIDAZO[4,5-F]QUINOLINE [76180-96-6], Dose [Inhibitor]: 0, 0.1% (W/V BASED ON TOTAL CHLORINS) IN DRINKING WATER BEGINNING 1 WK POST CARCINOGEN TREATMENT FOR THE DURATION STUDY, Route [Inhibitor]: ORAL, Species: RAT, Strain/Sex: F344/MALE, Target Tissue: Type of Lesion: COLON: TUMOR, Dose [Carcinogen]: 0.03% IN DIET FOR FIRST 5 WK (STUDY DURATION: 52 WK), Promoter: NONE): 2/22 (9%), 2/22 (9%), 0%, not significant
tumour outcome (control, treated, inhibition, significance) (Carcinogen: 2-AMINO-3-METHYLIMIDAZO[4,5-F]QUINOLINE [76180-96-6], Dose [Inhibitor]: 0, 0.1% (W/V BASED ON TOTAL CHLORINS) IN DRINKING WATER BEGINNING 1 WK POST CARCINOGEN TREATMENT FOR THE DURATION STUDY, Route [Inhibitor]: ORAL, Species: RAT, Strain/Sex: F344/MALE, Target Tissue: Type of Lesion: LIVER: TUMOR, Dose [Carcinogen]: 0.03% IN DIET FOR FIRST 5 WK (STUDY DURATION: 52 WK), Promoter: NONE): 16/22 (73%), 8/22 (36%), 51%, p<0.05
tumour outcome (control, treated, inhibition, significance) (Carcinogen: 2-AMINO-3-METHYLIMIDAZO[4,5-F]QUINOLINE [76180-96-6], Dose [Inhibitor]: 0, 0.1% (W/V BASED ON TOTAL CHLORINS) IN DRINKING WATER BEGINNING 1 WK POST CARCINOGEN TREATMENT FOR THE DURATION STUDY, Route [Inhibitor]: ORAL, Species: RAT, Strain/Sex: F344/MALE, Target Tissue: Type of Lesion: SKIN: TUMOR, Dose [Carcinogen]: 0.03% IN DIET FOR FIRST 5 WK (STUDY DURATION: 52 WK), Promoter: NONE): 7/22 (32%), 8/22 (36%), -12.5%, not significant
outcome (Carcinogen: 2-AMINO-3-METHYLIMIDAZO[4,5-F]QUINOLINE [76180-96-6], Dose [Inhibitor]: 0, 0.1% (W/V BASED ON TOTAL CHLORINS) IN DRINKING WATER BEGINNING 1 WK POST CARCINOGEN TREATMENT FOR THE DURATION STUDY, Route [Inhibitor]: ORAL, Species: RAT, Strain/Sex: F344/MALE, Target Tissue: Type of Lesion: SMALL INTESTINE: TUMOR, Dose [Carcinogen]: 0.03% IN DIET FOR FIRST 5 WK (STUDY DURATION: 52 WK), Promoter: NONE): 0/22 (0%), 0/22 (0%), 0%, not significant
tumour outcome (control, treated, inhibition, significance) (Carcinogen: 2-AMINO-3-METHYLIMIDAZO[4,5-F]QUINOLINE [76180-96-6], Dose [Inhibitor]: 0, 0.1% (W/V BASED ON TOTAL CHLORINS) IN DRINKING WATER BEGINNING 1 WK POST CARCINOGEN TREATMENT FOR THE DURATION STUDY, Route [Inhibitor]: ORAL, Species: RAT, Strain/Sex: F344/MALE, Target Tissue: Type of Lesion: ZYMBAL'S GLAND: TUMOR, Dose [Carcinogen]: 0.03% IN DIET FOR FIRST 5 WK (STUDY DURATION: 52 WK), Promoter: NONE): 5/22 (23%), 3/22 (14%), 39%, not significant
tumour outcome (control, treated, inhibition, significance) (Carcinogen: 7,12-DIMETHYLBENZ[A]ANTHRACENE [57-97-6], Dose [Inhibitor]: 0, 0.5% IN 0.2 ML DMSO-ACETONE (15:85, V/V) 2X/WK FOR 30 WK 10 MIN PRIOR TO PROMOTER DOSE (STUDY DURATION: 31 WK), Route [Inhibitor]: DERMAL, Species: MOUSE, Strain/Sex: ICR/FEMALE, Target Tissue: Type of Lesion: SKIN: PAPILLOMA, Dose [Carcinogen]: 0.2 UMOL ONCE (STUDY DURATION: 31 WK), Promoter: 12-O-TETRADECANOYLPHORBOL-13-ACETATE [16561-29-8]): 100%, 40%, 60%, not calculated
tumour outcome (control, treated, inhibition, significance) (Carcinogen: DIBENZO[A,L]PYRENE [191-30-0], Dose [Inhibitor]: 2052 PPM IN DIET FOR 3 WK BEGINNING 1 WK PRIOR TO FIRST CARCINOGEN DOSE (STUDY DURATION: 11 MONTHS), Route [Inhibitor]: ORAL, Species: FISH, Strain/Sex: SHASTA STRAIN RAINBOW TROUT/MALE,FEMALE, Target Tissue: Type of Lesion: LIVER: TUMOR, Dose [Carcinogen]: 500 PPM IN DIET FOR 2 WK (STUDY DURATION: 11 MONTHS), Promoter: NONE): 61%, 18%, 70%, p<0.001
tumour outcome (control, treated, inhibition, significance) (Carcinogen: DIBENZO[A,L]PYRENE [191-30-0], Dose [Inhibitor]: 2052 PPM IN DIET FOR 3 WK BEGINNING 1 WK PRIOR TO FIRST CARCINOGEN DOSE (STUDY DURATION: 11 MONTHS), Route [Inhibitor]: ORAL, Species: FISH, Strain/Sex: SHASTA STRAIN RAINBOW TROUT/MALE,FEMALE, Target Tissue: Type of Lesion: STOMACH: TUMOR, Dose [Carcinogen]: 500 PPM IN DIET FOR 2 WK (STUDY DURATION: 11 MONTHS), Promoter: NONE): 91%, 34%, 63%, p<0.001
tumour outcome (control, treated, inhibition, significance) (Carcinogen: DIBENZO[A,L]PYRENE [191-30-0], Dose [Inhibitor]: 2052 PPM IN DIET FOR 3 WK BEGINNING 1 WK PRIOR TO FIRST CARCINOGEN DOSE (STUDY DURATION: 11 MONTHS), Route [Inhibitor]: ORAL, Species: FISH, Strain/Sex: SHASTA STRAIN RAINBOW TROUT/MALE,FEMALE, Target Tissue: Type of Lesion: SWIM BLADDER: TUMOR, Dose [Carcinogen]: 500 PPM IN DIET FOR 2 WK (STUDY DURATION: 11 MONTHS), Promoter: NONE): 53%, 3%, 94%, p<0.001
tumour outcome (control, treated, inhibition, significance) (Carcinogen: DIBENZO[A,L]PYRENE [191-30-0], Dose [Inhibitor]: 4000 PPM IN DIET FOR 5 WK BEGINNING 1 WK PRIOR TO FIRST CARCINOGEN DOSE (STUDY DURATION: 9 MONTHS), Route [Inhibitor]: ORAL, Species: FISH, Strain/Sex: SHASTA STRAIN RAINBOW TROUT/MALE,FEMALE, Target Tissue: Type of Lesion: LIVER: TUMOR, Dose [Carcinogen]: 200 PPM IN DIET FOR 4 WK (STUDY DURATION: 9 MONTHS), Promoter: NONE): 36%, 13%, 64%, p<0.001
tumour outcome (control, treated, inhibition, significance) (Carcinogen: DIBENZO[A,L]PYRENE [191-30-0], Dose [Inhibitor]: 4000 PPM IN DIET FOR 5 WK BEGINNING 1 WK PRIOR TO FIRST CARCINOGEN DOSE (STUDY DURATION: 9 MONTHS), Route [Inhibitor]: ORAL, Species: FISH, Strain/Sex: SHASTA STRAIN RAINBOW TROUT/MALE,FEMALE, Target Tissue: Type of Lesion: STOMACH: TUMOR, Dose [Carcinogen]: 200 PPM IN DIET FOR 4 WK (STUDY DURATION: 9 MONTHS), Promoter: NONE): 48%, 13%, 73%, p<0.001
tumour outcome (control, treated, inhibition, significance) (Carcinogen: DIBENZO[A,L]PYRENE [191-30-0], Dose [Inhibitor]: 4000 PPM IN DIET FOR 5 WK BEGINNING 1 WK PRIOR TO FIRST CARCINOGEN DOSE (STUDY DURATION: 9 MONTHS), Route [Inhibitor]: ORAL, Species: FISH, Strain/Sex: SHASTA STRAIN RAINBOW TROUT/MALE,FEMALE, Target Tissue: Type of Lesion: SWIM BLADDER: TUMOR, Dose [Carcinogen]: 200 PPM IN DIET FOR 4 WK (STUDY DURATION: 9 MONTHS), Promoter: NONE): 30%, 5%, 83%, p<0.001
outcome (Dose [Inhibitor]: 250 mg/kg chlorophyllin by gavage daily for 10 days (Study duration 18 wk) (Test material solvent: tricaprylin), Route [Inhibitor]: Oral, Species: Rat, Strain/Sex: F344/Male, Target Tissue: Type of Lesion: Liver: GST placental form positive foci. Colon: aberrant crypt foci, Dose [Carcinogen]: 250 ug/kg by gavage daily for 10 days along or in combination with inhibitor (Study duration 18 wk) (Test material solve, Promoter: None): liver: 74% reduction in vol % of liver occupied (p<0.001) colon; 63% reduction i
